Laboratory results taken from patent US8575116B1, “Polyacetylenic compounds for protecting against pancreatic islet atrophy” (Academia Sinica, priority 2010, dated 2013).

Assays:
RIN-m5F cells = assay: DAG and cholesterol generation (3H-myristic acid, TLC) in RIN-m5F cells; assay type: cell-based, rat; settings: for level of DAG: versus vehicle control, glucose 16.7 mM
Protocol: FIGS. 5A-D show the effects of cytopiloyne on calcium mobilization, DAG generation and PKCa activation. (A) After Fura 2-AM loading, RIN-m5F cells were stimulated with 16.7 mM glucose (HG) and cytopiloyne at 7, 14 and 28 μM. Level of intracellular calcium, as shown by the 340/380 nm ratio, was detected using a fluorescence spectrophotometer. (B) RIN-m5F cells were pulsed with ^3H-myristic acid (5 Cim1^−1) for 16 hours. After washing, the cells were stimulated with glucose, cytopiloyne, PMA and glimepiride. Total lipids were separated on a silica thin layer plate. DAG and cholesterol were visualized with iodine vapor and identified by their standards. (C) RIN-m5F cells were incubated with vehicle (Mock), cytopiloyne (CP, 3, 7 and 14 μM), PMA (1 μM) and 16.7 mM (HG). Membrane or cytosolic proteins were subjected to Western blot with anti-PKCα and anti-Actin antibodies. (D) RIN-m5F cells were incubated with vehicle (Mock), cytopiloyne (CP 7 μM) and PMA (1 μM). After lysis, total lystaes were subjected to Western blot with anti-PKCα, anti-phospho-PKCα and anti-Actin antibodies.
RIN-m5F cells were incubated with ^3H-myristic acid ([…]) for 16 hours. After washing, the cells were treated with glucose, cytopiloyne, PMA and glimepiride. Total lipids were extracted as previously described. Radioactive DAG was separated on a silica thin layer plate with the first developer of ethylacetate: acetic acid: triethylpentane (9:2:5) and the second developer of hexane: diethylether: methanol: acetic acid (90:20:3:2). The spot of DAG was visualized with iodine vapor and identified by DAG standard.

db/db mice [1] = assay: Blood glucose after a single oral dose in fed diabetic db/db mice; assay type: in vivo, mouse; settings: for postprandial blood glucose levels, effect in words: single dose, cytopiloyne 0.1, 0.5 and 2.5 mgkg^−1, glimepiride 2.5 mgkg^−1, diabetic db/db mice; for Blood glucose level: fed db/db mice
Protocol: (§1) After 0.5 h, the levels of postprandial blood sugar and insulin from the mice were monitored for additional 4 h. For continued administration, diabetic db/db males were grouped and tube-fed with vehicle, cytopiloyne (0.5 or 2.5 mgkg^−1 day^−1) or glimepiride (2.5 mg kg^−1 day^−1) for the indicated time, while levels of blood sugar, insulin, and glycosylated HbA1c, and glucose tolerance in these mice were determined. To evaluate the prophylaxis of diabetes, diabetes-free db/db mice at 4 weeks of age were tube-fed with vehicle or cytopiloyne (CP, 0.5 mgkg^−1), once a day, for 4 weeks. Unless indicated otherwise, the mice were fasted for 16 h, then Postprandial blood glucose and insulin in these mice were measured.
(§2) Glucose levels in mouse blood samples were measured using an Elite® glucometer (Bayer, Pittsburgh, Pa., USA). Insulin levels in blood samples or islet cell supernatants were determined by ELISA assays (Mercodia, Uppsala, Sweden). The levels of glycosylated HbA1c in mouse blood samples were measured using DCA 2000 analyzer (Bayer, Pittsburgh, Pa., USA).
Diabetic db/db mice aged 6 to 8 weeks were grouped, fasted for 12 h, allowed free access to food for 2 h, and removed from food. One half hour after food removal was set as time 0. Postprandial blood was collected from the tail vein of the mice, tube-fed with vehicle, glimepiride (GLM) at 2.5 mg/kg/day and cytopiloyne (CP) at 0.1, 0.5 and 2.5 mg/kg/day. Blood samples were collected at the indicated time intervals (0, 1, 2 and 4 h). The blood glucose levels were determined using a glucometer. The number of mice tested (n) is indicated in parentheses in the first column.

db/db mice [2] = assay: Glycosylated HbA1c in db/db mice after long-term treatment; assay type: in vivo, mouse
Protocol: FIGS. 1A-F show the anti-diabetic effects of cytopiloyne in db/db mice during long-term treatment. (A) Chemical structure of cytopiloyne (2-β-D-glucopyranosyloxy-1-hydroxytrideca-5,7,9,11-tetrayne). (B) Four groups of 6-to-8-week-old diabetic db/db mice were tube-fed with vehicle, cytopiloyne (CP, 0.5 and 2.5 mgkg^−1 day^−1) or glimepiride (GLM, 2.5 mgkg^−1 day^−1) from 0 to 42 days post-treatment. Blood glucose (BG) levels in these mice were measured. (C) Blood insulin levels from the mice of FIG. 1B. (D) IPGTT was performed in the db/db mice of FIG. 1B on day 0, 28 and 42, and blood glucose levels were monitored for 3.5 h. (E) The percentage of glycosylated HbAlc of whole blood from the mice of FIG. 1B on day 0 and 42. (F) Pancreata of 8- and 16-week-old db/db males, which had received the same treatment as FIG. 1B for 2 (images a-h) and 10 (images i-p) weeks, were stained with hematoxylin and eosin (H&E, images a, c, e, g, i, k, m and o) or hematoxylin and anti-insulin (H&I, images b, d, f, h, j, l, n and p). The arrowheads indicate pancreatic islets. Scale bars, 200 μm. Results from 3 independent experiments are expressed as mean±SEM, and P<0.05 was considered to be statistically significant (*). The number of mice (n) is indicated in parentheses.
as §1, §2

[3] = single oral dose 2.5 mg/kg, 0 h
[4] = single oral dose 2.5 mg/kg, 1 h
[5] = single oral dose 2.5 mg/kg, 2 h
[6] = single oral dose 2.5 mg/kg, 4 h
[7] = 2.5 mgkg^−1 day^−1, day 42, db/db mice 12 to 14 weeks of age (untreated 7.3%)
[8] = 2.5 mgkg^−1 day^−1, versus untreated db/db mice

`CC#CC#CC#CC#CCCC(CO)O[C@@H]1O[C@H](CO)[C@@H](O)[C@H](O)[C@H]1O` (stereo partly drawn) [cytopiloyne, 2-β-D-glucopyranosyloxy-1-hydroxytrideca-5,7,9,11-tetrayne] was tested, and the level of cholesterol (RIN-m5F cells) was “not cholesterol”, the “level of DAG” value (RIN-m5F cells) was “dose-dependently increased the level of DAG” and the “postprandial blood glucose levels, effect in words” value (db/db mice [1]) was “significantly reduced postprandial blood glucose levels”. For the same compound, the Blood glucose level (db/db mice [1]; single oral dose 0.1 mg/kg, 0 h) was 373 ± 6 mg/dL, the Blood glucose level (db/db mice [1]; single oral dose 0.1 mg/kg, 1 h) was 267 ± 12 mg/dL and the Blood glucose level (db/db mice [1]; single oral dose 0.1 mg/kg, 2 h) was 204 ± 17 mg/dL. For the same compound, the Blood glucose level (db/db mice [1]; single oral dose 0.1 mg/kg, 4 h) was 158 ± 18 mg/dL, the Blood glucose level (db/db mice [1]; single oral dose 0.5 mg/kg, 0 h) was 369 ± 27 mg/dL and the Blood glucose level (db/db mice [1]; single oral dose 0.5 mg/kg, 1 h) was 214 ± 15 mg/dL. For the same compound, the Blood glucose level (db/db mice [1]; single oral dose 0.5 mg/kg, 2 h) was 163 ± 8 mg/dL, the Blood glucose level (db/db mice [1]; single oral dose 0.5 mg/kg, 4 h) was 132 ± 11 mg/dL and the Blood glucose level (db/db mice [1]; [3]) was 365 ± 9 mg/dL. It also gave a Blood glucose level (db/db mice [1]; [4]) of 207 ± 11 mg/dL, a Blood glucose level (db/db mice [1]; [5]) of 147 ± 12 mg/dL and a Blood glucose level (db/db mice [1]; [6]) of 129 ± 11 mg/dL. The “HbA1c glycosylated in the blood” value (db/db mice [2]; 0.5 mgkg^−1 day^−1, day 42, db/db mice 12 to 14 weeks of age (untreated 7.3%)) was 6%, the “decrease of glycosylated HbA1c” value (db/db mice [2]; 0.5 mgkg^−1 day^−1, versus untreated db/db mice) was 1.3% and the “HbA1c glycosylated in the blood” value (db/db mice [2]; [7]) was 5.6%. For the same compound, the “decrease of glycosylated HbA1c” value (db/db mice [2]; [8]) was 1.7%.
In the case of `CCC1=C(C)CN(C(=O)NCCc2ccc(S(=O)(=O)NC(=O)N[C@H]3CC[C@H](C)CC3)cc2)C1=O` [glimepiride, reference compound], the “level of DAG” value (RIN-m5F cells) is reported as “significantly increased the level of DAG”, the “postprandial blood glucose levels, effect in words” value (db/db mice [1]) is reported as “significantly reduced postprandial blood glucose levels” and the Blood glucose level (db/db mice [1]; [3]) is reported as 378 ± 9 mg/dL. The Blood glucose level (db/db mice [1]; [4]) was 237 ± 16 mg/dL, the Blood glucose level (db/db mice [1]; [5]) was 178 ± 20 mg/dL and the Blood glucose level (db/db mice [1]; [6]) was 187 ± 6 mg/dL. For the same compound, the “HbA1c glycosylated in the blood” value (db/db mice [2]; [7]) was 6.3% and the “decrease of glycosylated HbA1c” value (db/db mice [2]; [8]) was 1%.
